Source: patent US20250353891A1 (MEDIMMUNE LIMITED, priority 2022, published 2025)
Starred links: 1 amine or outer side, 2 acyl side, 3 side chain; linkers in the order of their positions; H or OH if unused. Non-standard residues stand in square brackets, D forms with d. Residues, ends and D or L forms follow the SMILES beside them. Groups on a side chain read outwards from the residue. *: point of attachment. C18 diacid = O=C(O)CCCCCCCCCCCCCCCCC(=O)*; γGlu = O=C(O)[C@H](CCC(=O)[*:2])N[*:1]; αMeF = C[C@](N)(Cc1ccccc1)C(=O)O; Aib = CC(C)(N)C(=O)O

Key:
[1] = biological target: T1, recombinant Neprilysin (Homo sapiens, UniProt P08473); test: Proteolytic resistance to neprilysin; assay type: in vitro ADME; settings: pH 8.3
T1 construct: purchased R&D Systems 1182-ZNC-010
Outline: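 Peptide stock (~250 μM) mixed 1:1 with neprilysin stock (100 μg/mL) in Tris/NaCl/NaHCO3 buffer, pH 8.3, at 37° C. Aliquots at 0, 30 min, 1, 2, 4, 24 h quenched in TFA/acetonitrile. Intact peptide estimated by RP-HPLC peak area at 210 nm.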

[2] = system: GLP-1R knockout (KO) mice; test: Glucose change in GLP-1R knockout mice; assay type: in vivo, mouse; settings: GLP-1R KO mice, s.c., 120 min vs 0 min, somatostatin pretreatment (octreotide) 30 min prior to cpd
Outline: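 GLP-1R knockout mice (n=4-8/group, sorted by body weight) were fasted 2 h, and in some studies pretreated with octreotide 10 mg/kg 30 min before peptide injection. Mice were reused up to 3 times with at least 1-week wash-out.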

[3] = biological target: human glucagon receptor (hGCGR) (Homo sapiens, UniProt P47871); test: cAMP production (HTRF) in CHO cells expressing hGCGR; assay type: cell-based; parameters: expressed in transfected cells; settings: Table 6, peptides modified at position 17; cAMP in CHO hGCGR cells; geometric mean; read-out: hGluc-R EC50
Outline: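 Cells were resuspended in assay buffer at batch-optimized density, typically 1×10^5 cells/mL for hGLP-1R and 2×10^5 cells/mL for hGCGR. After 30 min incubation at room temperature with compound, cAMP was measured by two-step HTRF. EC50 values came from 4-parameter logistic fits of % Delta F.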

T1 sequence (P08473 52-750 limits assumed): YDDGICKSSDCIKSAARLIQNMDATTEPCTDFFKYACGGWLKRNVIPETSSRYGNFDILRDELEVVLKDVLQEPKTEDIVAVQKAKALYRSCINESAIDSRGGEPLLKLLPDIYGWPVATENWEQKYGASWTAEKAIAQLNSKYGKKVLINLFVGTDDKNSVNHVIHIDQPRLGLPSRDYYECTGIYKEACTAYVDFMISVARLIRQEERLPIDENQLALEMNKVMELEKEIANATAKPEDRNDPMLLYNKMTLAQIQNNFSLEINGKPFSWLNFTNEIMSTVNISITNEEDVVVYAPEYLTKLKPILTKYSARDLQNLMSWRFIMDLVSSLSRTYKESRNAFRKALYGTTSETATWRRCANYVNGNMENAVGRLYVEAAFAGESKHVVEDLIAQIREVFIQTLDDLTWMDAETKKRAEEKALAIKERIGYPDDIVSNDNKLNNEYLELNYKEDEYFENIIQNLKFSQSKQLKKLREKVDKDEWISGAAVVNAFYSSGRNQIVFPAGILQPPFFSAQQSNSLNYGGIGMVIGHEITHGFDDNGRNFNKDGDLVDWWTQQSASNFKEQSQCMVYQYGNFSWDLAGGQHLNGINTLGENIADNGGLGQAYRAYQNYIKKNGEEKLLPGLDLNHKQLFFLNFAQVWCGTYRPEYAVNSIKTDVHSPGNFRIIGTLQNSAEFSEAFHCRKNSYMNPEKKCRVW
Chain of human glucagon receptor (hGCGR) (P47871 26-477): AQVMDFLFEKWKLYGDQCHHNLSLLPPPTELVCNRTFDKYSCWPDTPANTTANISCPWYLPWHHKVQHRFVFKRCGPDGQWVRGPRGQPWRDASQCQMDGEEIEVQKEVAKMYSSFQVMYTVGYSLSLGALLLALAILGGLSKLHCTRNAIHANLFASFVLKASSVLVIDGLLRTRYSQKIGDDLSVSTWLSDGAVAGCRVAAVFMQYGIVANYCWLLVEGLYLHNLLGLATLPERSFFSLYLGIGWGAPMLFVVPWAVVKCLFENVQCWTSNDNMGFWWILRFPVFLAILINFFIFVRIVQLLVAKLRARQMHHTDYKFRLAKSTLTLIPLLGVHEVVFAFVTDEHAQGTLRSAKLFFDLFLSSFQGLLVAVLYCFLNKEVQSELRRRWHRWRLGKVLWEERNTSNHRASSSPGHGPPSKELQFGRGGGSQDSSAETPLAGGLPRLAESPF

CC[C@H](C)[C@H](NC(=O)[C@H](Cc1c[nH]c2ccccc12)NC(=O)[C@H](CCC(=O)O)NC(=O)[C@@H](NC(=O)[C@](C)(Cc1ccccc1)NC(=O)[C@H](CC(=O)O)NC(=O)[C@H](CCC(N)=O)NC(=O)[C@H](C)NC(=O)[C@H](C)NC(=O)[C@H](CCCCNC(=O)CC[C@H](NC(=O)CCCCCCCCCCCCCCCCC(=O)O)C(=O)O)NC(=O)[C@H](CO)NC(=O)[C@H](CC(=O)O)NC(=O)[C@H](CC(C)C)NC(=O)[C@](C)(Cc1ccccc1)NC(=O)[C@H](CCCCN)NC(=O)[C@H](CO)NC(=O)[C@@H](NC(=O)[C@H](CC(=O)O)NC(=O)[C@H](CO)NC(=O)[C@@H](NC(=O)[C@](C)(Cc1ccccc1)NC(=O)[C@H](CO)NC(=O)CNC(=O)[C@H](Cc1c[nH]cn1)NC(=O)C(C)(C)NC(=O)[C@@H](N)Cc1c[nH]cn1)[C@@H](C)O)C(C)C)C(C)C)C(=O)N[C@@H](C)C(=O)N[C@@H](CC(N)=O)C(=O)N[C@H](C(N)=O)[C@@H](C)O [Peptide 7] (H-H[Aib]HGS[αMeF]TSDVSK[αMeF]LDSK([γGlu-C18 diacid])AAQD[αMeF]VEWIANT-NH2; N-terminus assumed)
remaining at 0.5 h ([1]; isolated enzyme neprilysin): 100% | remaining at 2 h ([1]; isolated enzyme neprilysin): 100% | remaining at 4 h ([1]; isolated enzyme neprilysin): 97% | remaining at 24 h ([1]; isolated enzyme neprilysin): 84% | % intact peptide over time [1]: 100% | GLP-1R KO % glucose change 120 min ([2]; 1.5 nmol/kg): 80.8% | GLP-1R KO % glucose change 120 min ([2]; 5 nmol/kg): 152.9% | EC50 [3]: 0.0307 nM
